The record followed here is patent US10766869B2, “Triazoles for the treatment of demyelinating dieases” (Vertex Pharmaceuticals Incorporated, priority 2015, dated 2020).

Where two headings read alike, the source gives them in different places.

The assay relates to primary rat mixed cortical cells. The assay is described as follows: In vitro myelination assay (MBP positive myelin strands, fold myelin pixels above background). The class given is cell-based. The conditions noted are these: Rattus norvegicus; for fold induction at 1 µM: 1.0 μM compound; for fold induction at 10 µM: 10.0 μM compound. An outline of the steps: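 P1 rat cortical cells (neurons, OPCs, oligodendrocytes, astrocytes, microglia) were cultured 14 days at 37 °C with compound, with half-medium changes containing 1× compound on days 6 and 10. Fixed cells were immunostained for MBP and imaged at 10×. Total MBP myelin pixels per well were expressed as fold above no-compound baseline at 1.0 μM and 10.0 μM.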

Where [1] appears, read: read-out: Fold myelin pixels above background relative to baseline of no added compound.
[2] abbreviates: relative to baseline of no added compound, read-out: Fold myelin pixels above background, 1.0 μM.
Where [3] appears, read: relative to baseline of no added compound, read-out: Fold myelin pixels above background, 10.0 μM.
Setting [4] is: relative to baseline of no added compound, read-out: Fold myelin pixels above background.

As for `Cc1cc(Nc2ncn(-c3cc(F)cc(F)c3)n2)cc(N2CCC(CN3CCOCC3)CC2)c1` [Compound 984, 1-(3,5-difluorophenyl)-N-[3-methyl-5-[4-(morpholinomethyl)-1-piperidyl]phenyl]-1,2,4-triazol-3-amine], under setting [1], the fold induction at 1 µM fell in the range of 10 to 100 and the fold induction at 10 µM was no more than 1.

For `Cc1cc(Nc2ncn(-c3cc(F)cc(F)c3)n2)cc(C2(F)CCN(C3COC3)C2)c1` (centres unmarked) [Compound 193, 1-(3,5-difluorophenyl)-N-[3-[3-fluoro-1-(oxetan-3-yl)pyrrolidin-3-yl]-5-methyl-phenyl]-1,2,4-triazol-3-amine], the fold induction at 1 µM under setting [2] lay in the range of 100 to 1000. Further, the fold induction at 10 µM under setting [3] lay in the range of 100 to 1000.

Take `Cc1cc(Nc2ncn(-c3ccc(F)cc3)n2)cc(N2CC(N3CCOCC3)C2)c1` [Compound 606, 1-(4-fluorophenyl)-N-[3-methyl-5-(3-morpholinoazetidin-1-yl)phenyl]-1,2,4-triazol-3-amine]: under setting [4], the fold induction at 1 µM was 1 to 10 and the fold induction at 10 µM was in the range of 1 to 10.

With `Cc1cc(Nc2ncn(-c3cc(F)cc(F)c3)n2)cc(N2CC(n3cccn3)C2)c1` [Compound 379, 1-(3,5-difluorophenyl)-N-[3-methyl-5-(3-pyrazol-1-ylazetidin-1-yl)phenyl]-1,2,4-triazol-3-amine], the fold induction at 1 µM under setting [2] fell in the range of 10 to 100. Besides, the fold induction at 10 µM under setting [3] fell in the range of 100 to 1000.

For `Cc1cc(Nc2ncn(-c3cccc(C(F)(F)F)c3)n2)cc(OCC2(C)COC2)c1` [Compound 671, N-[3-methyl-5-[(3-methyloxetan-3-yl)methoxy]phenyl]-1-[3-(trifluoromethyl)phenyl]-1,2,4-triazol-3-amine], under setting [4], the fold induction at 1 µM is 10 to 100 and the fold induction at 10 µM fell in the range of 1 to 10.

Take `Cc1cc(Nc2ncn(-c3ccccc3)n2)cc(C2COC2)c1` [Compound 363, N-[3-methyl-5-(oxetan-3-yl)phenyl]-1-phenyl-1,2,4-triazol-3-amine]: under setting [2], the fold induction at 1 µM fell in the range of 1000 to 10000. Moreover, the fold induction at 10 µM under setting [3] fell in the range of 100 to 1000.

Consider `CCN1CCN(C2CCN(c3cc(C)cc(Nc4ncn(-c5cc(F)cc(F)c5)n4)c3)CC2)CC1` [Compound 1025, 1-(3,5-difluorophenyl)-N-[3-[4-(4-ethylpiperazin-1-yl)-1-piperidyl]-5-methyl-phenyl]-1,2,4-triazol-3-amine], for which, under setting [1], the fold induction at 1 µM was 1 to 10 and the fold induction at 10 µM fell in the range of 10 to 100.

`Cc1cc(Nc2ncn(-c3cc(F)cc(F)c3)n2)cc(N2CCOC3(CC3)C2)c1` [Compound 1035, 1-(3,5-difluorophenyl)-N-[3-methyl-5-(4-oxa-7-azaspiro[2.5]octan-7-yl)phenyl]-1,2,4-triazol-3-amine]: under setting [1], the fold induction at 1 µM lay within 1 to 10 and the fold induction at 10 µM lay in the range of 1 to 10.

Turning to `Cc1cc(Nc2ncn(-c3cc(F)cc(F)c3)n2)nc(N2CCNCC2)c1` [Compound 529, N-[1-(3,5-difluorophenyl)-1,2,4-triazol-3-yl]-4-methyl-6-piperazin-1-yl-pyridin-2-amine], under setting [4], the fold induction at 1 µM lay in the range of 1 to 10 and the fold induction at 10 µM is no more than 1.

For `CCC1(O)CN(c2cc(C)cc(Nc3ncn(-c4cc(F)cc(F)c4)n3)c2)C1` [Compound 553, 1-[3-[[1-(3,5-difluorophenyl)-1,2,4-triazol-3-yl]amino]-5-methyl-phenyl]-3-ethyl-azetidin-3-ol], under setting [4], the fold induction at 1 µM is 100 to 1000 and the fold induction at 10 µM is 10 to 100.

As to `FC(F)(F)c1cc(Nc2ncn(-c3cnccn3)n2)cc(N2CC3CC(C2)O3)c1` [Compound 513, N-[3-(6-oxa-3-azabicyclo[3.1.1]heptan-3-yl)-5-(trifluoromethyl)phenyl]-1-pyrazin-2-yl-1,2,4-triazol-3-amine], under setting [4], the fold induction at 1 µM was 100 to 1000 and the fold induction at 10 µM lay within 100 to 1000.

For the molecule `Cc1cc(Nc2ncn(-c3cnccn3)n2)c(F)c(OC2CCOC2)c1` (centres unmarked) [Compound 952, N-(2-fluoro-5-methyl-3-tetrahydrofuran-3-yloxy-phenyl)-1-pyrazin-2-yl-1,2,4-triazol-3-amine], under setting [1], the fold induction at 1 µM was in the range of 1 to 10 and the fold induction at 10 µM is 1 to 10.

As for `Cc1cc(Nc2ncn(-c3cc(F)cc(F)c3)n2)nc(N2CCCC(O)C2)c1` (centres unmarked) [Compound 755, 1-[6-[[1-(3,5-difluorophenyl)-1,2,4-triazol-3-yl]amino]-4-methyl-2-pyridyl]piperidin-3-ol], under setting [4], the fold induction at 1 µM fell in the range of 1 to 10 and the fold induction at 10 µM lay within 10 to 100.

Consider `Cc1cc(Nc2ncn(-c3cc(F)cc(F)c3)n2)cc(N2CCCC3(COC3)C2)c1` [Compound 541, 1-(3,5-difluorophenyl)-N-[3-methyl-5-(2-oxa-8-azaspiro[3.5]nonan-8-yl)phenyl]-1,2,4-triazol-3-amine], for which, under setting [4], the fold induction at 1 µM was no more than 1 and the fold induction at 10 µM lay in the range of 1 to 10.

Consider `Cc1cc(Nc2ncn(-c3cc(C)ccc3F)n2)cc(N2CCN(C3COC3)CC2)c1` [Compound 476, 1-(2-fluoro-5-methyl-phenyl)-N-[3-methyl-5-[4-(oxetan-3-yl)piperazin-1-yl]phenyl]-1,2,4-triazol-3-amine], for which, under setting [4], the fold induction at 1 µM lay in the range of 10 to 100 and the fold induction at 10 µM was in the range of 10 to 100.

Regarding `Cc1cc(Nc2ncn(-c3ccccc3)n2)cc(Nc2ncc(C)s2)c1` [Compound 588, 5-methyl-N1-(5-methylthiazol-2-yl)-N3-(1-phenyl-1,2,4-triazol-3-yl)benzene-1,3-diamine], under setting [4], the fold induction at 1 µM fell in the range of 10 to 100 and the fold induction at 10 µM is no more than 1.

On to `FC(F)c1cc(Nc2ncn(-c3ccccc3)n2)cc(N2CCNCC2)c1` [Compound 62, N-[3-(difluoromethyl)-5-piperazin-1-yl-phenyl]-1-phenyl-1,2,4-triazol-3-amine], for which the fold induction at 1 µM under setting [2] fell in the range of 1000 to 10000. Under setting [3], the fold induction at 10 µM was no more than 1.

For `Cc1cc(Nc2ncn(-c3cccc(F)c3)n2)cc(N2CCOCC2)c1` [Compound 27, 1-(3-fluorophenyl)-N-(3-methyl-5-morpholino-phenyl)-1,2,4-triazol-3-amine], the fold induction at 1 µM under setting [2] lay in the range of 1000 to 10000. The fold induction at 10 µM under setting [3] lay in the range of 100 to 1000.

Regarding `Fc1cc(F)cc(-n2cnc(Nc3cc(C(F)(F)F)cc(N4CCOCC4)n3)n2)c1` [Compound 674, N-[1-(3,5-difluorophenyl)-1,2,4-triazol-3-yl]-6-morpholino-4-(trifluoromethyl)pyridin-2-amine], under setting [4], the fold induction at 1 µM was 1 to 10 and the fold induction at 10 µM was in the range of 1 to 10.

Turning to `Fc1cc(F)cc(-n2cnc(Nc3cc(C(F)(F)F)cc(N4CC(N5CCOCC5)C4)n3)n2)c1` [Compound 601, N-[1-(3,5-difluorophenyl)-1,2,4-triazol-3-yl]-6-(3-morpholinoazetidin-1-yl)-4-(trifluoromethyl)pyridin-2-amine], under setting [4], the fold induction at 1 µM lay in the range of 1 to 10 and the fold induction at 10 µM is no more than 1.

With `[2H]c1nc(Nc2cc(C)cc(N3CCN(C4COC4)CC3)c2)nn1-c1cc(F)cc(F)c1` [Compound 1080, 5-deuterio-1-(3,5-difluorophenyl)-N-[3-methyl-5-[4-(oxetan-3-yl)piperazin-1-yl]phenyl]-1,2,4-triazol-3-amine], under setting [1], the fold induction at 1 µM lay within 10 to 100 and the fold induction at 10 µM fell in the range of 10 to 100.

For `COC1CCCC1Nc1cc(C)cc(Nc2ncn(-c3cc(F)cc(F)c3)n2)c1` (centres unmarked) [Compound 1065, N3-[1-(3,5-difluorophenyl)-1,2,4-triazol-3-yl]-N1-(2-methoxycyclopentyl)-5-methyl-benzene-1,3-diamine], under setting [1], the fold induction at 1 µM lay within 10 to 100 and the fold induction at 10 µM lay within 1 to 10.

Regarding `Cc1cc(Nc2ncn(-c3cc(F)cc(F)c3)n2)cc(N2CCC(N3CCCC3)CC2)c1` [Compound 1038, 1-(3,5-difluorophenyl)-N-[3-methyl-5-(4-pyrrolidin-1-yl-1-piperidyl)phenyl]-1,2,4-triazol-3-amine], under setting [1], the fold induction at 1 µM lay within 1 to 10 and the fold induction at 10 µM was 10 to 100.

For the molecule `Cc1cc(Nc2ncn(-c3cc(F)cc(F)c3)n2)cc(NC2CCN(C3COC3)C2)c1` (centres unmarked) [Compound 472, N3-[1-(3,5-difluorophenyl)-1,2,4-triazol-3-yl]-5-methyl-N1-[1-(oxetan-3-yl)pyrrolidin-3-yl]benzene-1,3-diamine], under setting [4], the fold induction at 1 µM was in the range of 100 to 1000 and the fold induction at 10 µM is no more than 1.

Turning to `CCc1cc(Nc2ncn(-c3cccc(C(F)F)c3)n2)cc(N2CCN(C3COC3)CC2)c1` [Compound 736, 1-[3-(difluoromethyl)phenyl]-N-[3-ethyl-5-[4-(oxetan-3-yl)piperazin-1-yl]phenyl]-1,2,4-triazol-3-amine], under setting [4], the fold induction at 1 µM lay within 10 to 100 and the fold induction at 10 µM is no more than 1.

`Cc1cc(Nc2ncn(-c3cc(F)cc(F)c3)n2)cc(C2CCCN(C3CC(C(=O)O)C3)C2)c1` (centres unmarked) [Compound 442, 3-[3-[3-[[1-(3,5-difluorophenyl)-1,2,4-triazol-3-yl]amino]-5-methyl-phenyl]-1-piperidyl]cyclobutanecarboxylic acid]: under setting [4], the fold induction at 1 µM was in the range of 10 to 100 and the fold induction at 10 µM was 10 to 100.

Take `Cc1cc(Nc2ncn(-c3cc(F)cc(F)c3)n2)cc(N2C[C@@H]3C[C@H]2CN3C2COC2)c1` [Compound 34, 1-(3,5-difluorophenyl)-N-[3-methyl-5-[(1S,4S)-2-(oxetan-3-yl)-2,5-diazabicyclo[2.2.1]heptan-5-yl]phenyl]-1,2,4-triazol-3-amine]: under setting [2], the fold induction at 1 µM lay within 100 to 1000. Besides, the fold induction at 10 µM under setting [3] is no more than 1.

As for `Cc1cc(CN2CCN(C3COC3)CC2)cc(Nc2ncn(-c3cc(F)cc(F)c3)n2)c1` [Compound 596, 1-(3,5-difluorophenyl)-N-[3-methyl-5-[[4-(oxetan-3-yl)piperazin-1-yl]methyl]phenyl]-1,2,4-triazol-3-amine], under setting [4], the fold induction at 1 µM is 10 to 100 and the fold induction at 10 µM is 10 to 100.
